Test systems include PC-3 prostate; HOP-62 NSCLC; NCI-H23 lung; SF-539 CNS; A549 NSCLC; SN12C renal; SF-268 CNS; SNB-75 CNS; EKVX NSCLC; OVCAR-3 ovarian; SNB-19 CNS.
Holding throughout (assay): DTP human tumour cell line panel, 48 h

Structures are written as SMILES.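 Method: 48-hour compound exposure of cells in 96-well plates, five concentrations, linear interpolation of endpoints. Abbreviation: GI50, concentration required for 50% inhibition of growth. At the TGI there is no net growth.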

This note sets out measurements from PubChem BioAssay (NCI).

As a reminder, the TGI is the concentration at which net growth stops. A higher TGI goes with less potent growth arrest. Take `N=C(N)SCCN1CCCCC1`: the TGI in the assay with PC-3 prostate was 45.8 µM; in the assay with HOP-62 NSCLC it was above 100 µM; in the assay on NCI-H23 lung, above 100 µM; in the assay on SF-539 CNS, 84.1 µM; with A549 NSCLC, above 100 µM; in the assay on SN12C renal it was 73.4 µM. Moreover, the TGI was above 100 µM in the assay with SF-268 CNS, 94.1 µM with SNB-75 CNS, above 100 µM in the assay with EKVX NSCLC and 43.9 µM in the assay with OVCAR-3 ovarian.
As for `O=S(=O)([O-])[O-].[Fe+2].[OH2+]c1c(Cl)cc(Cl)cc1/C=N/Nc1ccccn1`, the TGI in the assay on SNB-19 CNS amounted to 3.64 µM; in the assay on HOP-62 NSCLC, 3.56 µM; in the assay with NCI-H23 lung, 2.64 µM; with SF-539 CNS, 1.27 µM; in the assay on A549 NSCLC it was 4.14 µM; in the assay on SN12C renal, 2.82 µM. Further, the TGI in the assay on SF-268 CNS is 1.94 µM; in the assay with SNB-75 CNS, 1.64 µM; in the assay with EKVX NSCLC, 2.25 µM; in the assay on OVCAR-3 ovarian it was 0.578 µM.
As to `C[N+]1(c2ccccc2)C=C(c2ccccc2)SC1=S` (stereo not drawn), the TGI in the assay with SNB-19 CNS, in the assay on PC-3 prostate, in the assay with HOP-62 NSCLC, in the assay with NCI-H23 lung, with SF-539 CNS and in the assay with A549 NSCLC was above 100 µM in each case. Besides, the TGI in the assay on SN12C renal, in the assay on SF-268 CNS, with EKVX NSCLC and with OVCAR-3 ovarian was above 100 µM in each case.
On to `Nc1ccc(S(=O)(=O)NCCS(=O)(=O)O)cc1`, for which the TGI in the assay with SNB-19 CNS, with PC-3 prostate, in the assay with HOP-62 NSCLC, in the assay on NCI-H23 lung, with A549 NSCLC and with SN12C renal was above 100 µM in each case. Also, the TGI with SF-268 CNS, in the assay with SNB-75 CNS, in the assay with EKVX NSCLC and in the assay on OVCAR-3 ovarian was above 100 µM in each case.
Regarding `O=C(/C=C/c1ccc(O)cc1)c1cc(-c2cc(CCC(=O)c3ccc(O)cc3O)ccc2O)c(O)cc1O`, the TGI with SNB-19 CNS was above 50 µM; in the assay with PC-3 prostate, above 50 µM; in the assay with HOP-62 NSCLC, above 50 µM; with NCI-H23 lung it was above 50 µM; in the assay with SF-539 CNS, 24.8 µM; with A549 NSCLC, above 50 µM. Also, the concentration for total growth inhibition (TGI) was above 50 µM in the assay with SN12C renal; above 50 µM in the assay with SF-268 CNS; 41.7 µM in the assay with SNB-75 CNS; above 50 µM with EKVX NSCLC; above 50 µM in the assay with OVCAR-3 ovarian.
For `Cc1ncc(COP(=O)(O)O)c(C)c1O`, the total growth inhibition concentration (TGI) in the assay on SNB-19 CNS, with PC-3 prostate, with HOP-62 NSCLC, in the assay on NCI-H23 lung, in the assay with A549 NSCLC and in the assay with SN12C renal was above 100 µM throughout. Moreover, the TGI in the assay with SF-268 CNS, with EKVX NSCLC and in the assay with OVCAR-3 ovarian was above 100 µM throughout.
Consider `COc1ccc(OC)c([N+](=O)[O-])c1-c1nc2sc(C)c(C)n2c1/C=N/N=C(N)N`, for which the TGI in the assay with SNB-19 CNS, in the assay with PC-3 prostate, in the assay on HOP-62 NSCLC, in the assay on NCI-H23 lung, in the assay with SF-539 CNS and in the assay on A549 NSCLC was above 100 µM throughout. Moreover, the TGI in the assay with SN12C renal, in the assay with SF-268 CNS, in the assay on EKVX NSCLC and with OVCAR-3 ovarian was above 100 µM throughout.
One may read the GI50 as the concentration giving 50% growth inhibition. Regarding `COc1cc(O)c2c(=O)c(OC)c(-c3ccc(OC)c(OC)c3)oc2c1.[Zn+2]`, the GI50 was 4.31 µM in the assay with SNB-19 CNS; 9.18 µM in the assay with PC-3 prostate; 2.87 µM with HOP-62 NSCLC; 12.9 µM with SF-268 CNS; 25.7 µM in the assay with EKVX NSCLC; 14.1 µM in the assay on OVCAR-3 ovarian. Further, the TGI is above 100 µM with SNB-19 CNS; above 100 µM with PC-3 prostate; 11.4 µM in the assay on HOP-62 NSCLC; above 100 µM in the assay on SF-539 CNS; above 100 µM in the assay on A549 NSCLC; above 100 µM with SN12C renal. The TGI in the assay with SF-268 CNS is above 100 µM; in the assay with SNB-75 CNS, 8.79 µM; with EKVX NSCLC, above 100 µM; in the assay with OVCAR-3 ovarian, 35.7 µM.
For the compound `CCCCCCCCc1ccc(CCC(N)(CO)CO)cc1`, the GI50 in the assay on PC-3 prostate is 1.75 µM; with HOP-62 NSCLC, 1.69 µM; in the assay with SF-539 CNS, 1.85 µM; in the assay on SN12C renal, 3.5 µM; in the assay with SNB-75 CNS, 2.13 µM; in the assay with EKVX NSCLC it was 2.36 µM. The GI50 in the assay with OVCAR-3 ovarian is 1.94 µM. Besides, the TGI was 3.41 µM in the assay on PC-3 prostate; 3.08 µM in the assay on HOP-62 NSCLC; 3.39 µM with SF-539 CNS; 13.9 µM in the assay on SN12C renal; 4.2 µM in the assay with SNB-75 CNS; 5.8 µM with EKVX NSCLC. Besides, the TGI in the assay with OVCAR-3 ovarian worked out at 3.48 µM.
For `C=C(C[C@@H](O)[C@H](C)NC(=O)OCc1ccccc1)C(=O)OC(C)(C)C`, the TGI in the assay with SNB-19 CNS, in the assay with PC-3 prostate, in the assay on HOP-62 NSCLC, in the assay on NCI-H23 lung, with SF-539 CNS and with A549 NSCLC was above 100 µM each time. The TGI in the assay on SN12C renal, in the assay with SF-268 CNS, with SNB-75 CNS, in the assay with EKVX NSCLC and in the assay with OVCAR-3 ovarian was above 100 µM in each case.
For the compound `CCOc1ccc(N=Nc2ccc(-c3ccc(N=Nc4c(O)ccc5cc(S(=O)(=O)O)cc(S(=O)(=O)O)c45)cc3)cc2)cc1`, the TGI with SNB-19 CNS, in the assay with PC-3 prostate, in the assay on HOP-62 NSCLC, in the assay with NCI-H23 lung, with SF-539 CNS and in the assay with A549 NSCLC was above 100 µM each time. Moreover, the TGI with SF-268 CNS, with EKVX NSCLC and in the assay with OVCAR-3 ovarian was above 100 µM each time.
Regarding `O=C1O/C(=C\C=C\CO)C=C1/C=C/CO`, the TGI with SNB-19 CNS was 51.4 µM; in the assay with PC-3 prostate, 42.5 µM; in the assay with NCI-H23 lung it was 41.9 µM; in the assay with SF-539 CNS, 55 µM; in the assay with A549 NSCLC it was above 100 µM; with SN12C renal, 80.4 µM. For the same compound, the TGI with SF-268 CNS was 58.2 µM; in the assay on SNB-75 CNS, above 100 µM; in the assay with EKVX NSCLC, 35.5 µM; with OVCAR-3 ovarian, 48.8 µM.
As for `Cc1cccc(/C=C2/C(=O)Nc3ccccc32)n1`, the TGI is above 58.9 µM with SNB-19 CNS; above 60.9 µM with PC-3 prostate; 33.3 µM in the assay on HOP-62 NSCLC; 28.9 µM with NCI-H23 lung; 51.4 µM with SF-539 CNS; above 85 µM with A549 NSCLC. The TGI with SN12C renal is 37.9 µM; in the assay on SF-268 CNS, 42.5 µM; with SNB-75 CNS, above 100 µM; in the assay with EKVX NSCLC, 71.9 µM; with OVCAR-3 ovarian it was 39.3 µM.
As to `CC(=O)Oc1cc(/C=C/c2ccc(O)cc2)cc(OC(C)=O)c1`, the TGI in the assay with SNB-19 CNS is above 100 µM; in the assay with PC-3 prostate, above 100 µM; in the assay with HOP-62 NSCLC, above 100 µM; with NCI-H23 lung, 53.9 µM; in the assay with SF-539 CNS, 41.5 µM; with A549 NSCLC, above 100 µM. In addition, the TGI in the assay with SN12C renal was 68.5 µM; in the assay with SF-268 CNS it was above 100 µM; in the assay with SNB-75 CNS, above 100 µM; in the assay on OVCAR-3 ovarian, above 100 µM.
`CC(=O)[C@]12OC(=O)C3=C1[C@H](CC[C@@H]3C)[C@@H](C)C[C@H]2C=C(C)C`: the TGI in the assay on SNB-19 CNS turned out to be 16.4 µM; in the assay on PC-3 prostate it was 21.1 µM; in the assay with HOP-62 NSCLC it was 16 µM; with NCI-H23 lung, 17.9 µM; in the assay on SF-539 CNS, 16.5 µM; with A549 NSCLC, 16.8 µM. In addition, the TGI amounted to 15.8 µM with SN12C renal, 15.8 µM in the assay on SF-268 CNS and 14 µM with OVCAR-3 ovarian.
Consider `NC(=S)N/N=C1\CC(c2ccccc2)Nc2ccccc21` (stereo not drawn), for which the TGI in the assay with SNB-19 CNS was above 100 µM; in the assay on NCI-H23 lung it was above 100 µM; in the assay with SF-539 CNS, above 100 µM; with SN12C renal, above 100 µM; in the assay on SF-268 CNS it was above 100 µM; in the assay on SNB-75 CNS it was 49.1 µM. Also, the TGI in the assay with EKVX NSCLC and in the assay on OVCAR-3 ovarian was above 100 µM in each case.
Turning to `CC(=O)c1c(C)cc2cccc(OC3OC(CO)C(O)C(O)C3O)c2c1O` (stereo not drawn) (tested in a mixture with another compound), the TGI with SNB-19 CNS, in the assay on PC-3 prostate, in the assay with HOP-62 NSCLC, with NCI-H23 lung, in the assay with SF-539 CNS and in the assay with A549 NSCLC was above 100 µM throughout. The TGI with SN12C renal, in the assay with SF-268 CNS, with SNB-75 CNS, with EKVX NSCLC and in the assay with OVCAR-3 ovarian was above 100 µM in each case.
`C[N+]1(C)C/C(=C\c2ccc(O)cc2)C(=O)/C(=C/c2ccc(O)cc2)C1`: the TGI in the assay on SNB-19 CNS, in the assay with HOP-62 NSCLC, in the assay with SF-539 CNS, in the assay on A549 NSCLC, in the assay with SN12C renal and in the assay on SF-268 CNS was above 100 µM each time. In addition, the TGI with SNB-75 CNS, in the assay on EKVX NSCLC and with OVCAR-3 ovarian was above 100 µM each time.
